Values quoted from earlier work in US12655468B2, “Genetic predictors of a response to treatment with CRHR1 antagonists” (HMNC Holding GmbH, priority 2015, dated 2026).

Test system: mice overexpressing CRH in the forebrain

COCC(COC)Nc1nc(C)nc2c(-c3ccc(Cl)cc3Cl)c(C)nn12 [DMP696]
effect on increased REM sleep: could reverse the REM enhancement
